This is an account of results in ChEMBL document CHEMBL5291721, “A preclinical secondary pharmacology resource illuminates target-adverse drug reaction associations of marketed drugs” (Nat Commun, 2023).

Assay [1] has as its target T1, Cholecystokinin receptor type A (Homo sapiens, UniProt P32238).
T1 sequence (P32238 whole entry): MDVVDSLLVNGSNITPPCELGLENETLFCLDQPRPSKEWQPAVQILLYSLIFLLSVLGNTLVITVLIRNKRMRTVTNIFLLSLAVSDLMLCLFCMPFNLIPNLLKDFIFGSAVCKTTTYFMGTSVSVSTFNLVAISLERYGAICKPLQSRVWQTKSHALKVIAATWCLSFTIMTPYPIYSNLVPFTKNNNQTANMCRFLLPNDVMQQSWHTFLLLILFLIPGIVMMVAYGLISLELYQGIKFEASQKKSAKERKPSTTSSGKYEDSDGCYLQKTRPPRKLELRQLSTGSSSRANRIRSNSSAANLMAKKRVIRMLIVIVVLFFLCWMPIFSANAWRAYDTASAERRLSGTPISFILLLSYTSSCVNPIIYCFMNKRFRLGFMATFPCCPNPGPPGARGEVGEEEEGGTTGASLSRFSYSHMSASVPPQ

Assay [2] concerns the target Sodium-dependent noradrenaline transporter (Homo sapiens, UniProt P23975).
The target in assay [3] is T2, Muscarinic acetylcholine receptor M2 (Homo sapiens, UniProt P08172).
T2 sequence (P08172 whole entry): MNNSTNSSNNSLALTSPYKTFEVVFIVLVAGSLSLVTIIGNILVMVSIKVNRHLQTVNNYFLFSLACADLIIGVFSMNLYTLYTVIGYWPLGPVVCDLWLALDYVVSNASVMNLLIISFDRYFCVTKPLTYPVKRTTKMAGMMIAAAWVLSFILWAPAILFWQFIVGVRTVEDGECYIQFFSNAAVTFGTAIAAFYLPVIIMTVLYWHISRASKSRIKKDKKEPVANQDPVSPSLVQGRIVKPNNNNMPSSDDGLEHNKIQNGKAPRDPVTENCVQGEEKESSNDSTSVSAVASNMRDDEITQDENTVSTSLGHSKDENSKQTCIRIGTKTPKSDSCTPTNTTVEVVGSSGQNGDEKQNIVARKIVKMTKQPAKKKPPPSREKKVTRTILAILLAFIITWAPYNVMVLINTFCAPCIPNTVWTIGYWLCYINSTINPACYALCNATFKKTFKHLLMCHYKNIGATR
It is filed as functional, cell-based.

For assay [4], the target named is T3, Amine oxidase [flavin-containing] A (Homo sapiens, UniProt P21397).
T3 sequence (P21397 whole entry): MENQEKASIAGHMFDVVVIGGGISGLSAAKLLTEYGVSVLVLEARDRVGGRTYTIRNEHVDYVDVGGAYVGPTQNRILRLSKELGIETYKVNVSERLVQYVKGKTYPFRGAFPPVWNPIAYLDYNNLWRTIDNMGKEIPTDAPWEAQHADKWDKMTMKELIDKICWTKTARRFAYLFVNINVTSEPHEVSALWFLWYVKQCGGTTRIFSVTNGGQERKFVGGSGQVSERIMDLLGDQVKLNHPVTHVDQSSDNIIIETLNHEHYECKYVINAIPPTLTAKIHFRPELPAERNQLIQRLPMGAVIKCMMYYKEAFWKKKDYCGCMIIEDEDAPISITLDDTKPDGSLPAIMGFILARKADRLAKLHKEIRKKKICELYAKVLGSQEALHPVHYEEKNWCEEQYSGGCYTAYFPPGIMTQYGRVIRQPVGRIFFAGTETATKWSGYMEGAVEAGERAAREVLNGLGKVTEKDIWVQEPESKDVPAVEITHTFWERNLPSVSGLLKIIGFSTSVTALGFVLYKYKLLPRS
In kind it is functional.

The target of assay [5] is T4, Equilibrative nucleoside transporter 1 (Homo sapiens, UniProt Q99808).
T4 sequence (Q99808 whole entry): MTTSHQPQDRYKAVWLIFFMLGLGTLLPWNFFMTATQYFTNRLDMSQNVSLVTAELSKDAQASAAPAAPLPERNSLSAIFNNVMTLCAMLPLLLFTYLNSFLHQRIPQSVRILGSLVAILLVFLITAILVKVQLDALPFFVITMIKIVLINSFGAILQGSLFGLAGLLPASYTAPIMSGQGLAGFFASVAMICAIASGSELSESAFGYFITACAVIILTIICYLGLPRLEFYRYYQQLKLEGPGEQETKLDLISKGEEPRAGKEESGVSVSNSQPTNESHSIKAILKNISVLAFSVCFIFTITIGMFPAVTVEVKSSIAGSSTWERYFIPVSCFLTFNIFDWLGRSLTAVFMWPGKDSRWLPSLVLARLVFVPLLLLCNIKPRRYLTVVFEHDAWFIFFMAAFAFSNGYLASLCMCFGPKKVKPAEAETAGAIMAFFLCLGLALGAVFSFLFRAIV

Assay [6] has as its target Delta-type opioid receptor (Homo sapiens, UniProt P41143).
The next assay has as its target Melanocortin receptor 3 (Homo sapiens, UniProt P41968).
The target of assay [7] is Beta-1 adrenergic receptor (Homo sapiens, UniProt P08588). In kind it is functional.
Chain of Beta-1 adrenergic receptor (P08588 whole entry): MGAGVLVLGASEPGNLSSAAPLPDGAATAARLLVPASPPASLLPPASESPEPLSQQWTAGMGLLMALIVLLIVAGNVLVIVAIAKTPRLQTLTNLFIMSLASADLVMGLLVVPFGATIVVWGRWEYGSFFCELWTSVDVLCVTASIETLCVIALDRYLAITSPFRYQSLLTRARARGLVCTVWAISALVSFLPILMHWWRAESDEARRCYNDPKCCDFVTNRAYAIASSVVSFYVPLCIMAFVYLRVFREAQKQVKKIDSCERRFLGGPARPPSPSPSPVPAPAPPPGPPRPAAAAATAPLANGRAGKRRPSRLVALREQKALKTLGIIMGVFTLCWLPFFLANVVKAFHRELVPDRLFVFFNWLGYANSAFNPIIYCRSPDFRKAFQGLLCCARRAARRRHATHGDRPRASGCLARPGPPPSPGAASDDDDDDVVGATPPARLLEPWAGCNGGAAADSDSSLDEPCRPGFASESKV
In the next assay the target is Vasopressin V1a receptor (Homo sapiens, UniProt P37288).
Chain of Vasopressin V1a receptor (P37288 whole entry): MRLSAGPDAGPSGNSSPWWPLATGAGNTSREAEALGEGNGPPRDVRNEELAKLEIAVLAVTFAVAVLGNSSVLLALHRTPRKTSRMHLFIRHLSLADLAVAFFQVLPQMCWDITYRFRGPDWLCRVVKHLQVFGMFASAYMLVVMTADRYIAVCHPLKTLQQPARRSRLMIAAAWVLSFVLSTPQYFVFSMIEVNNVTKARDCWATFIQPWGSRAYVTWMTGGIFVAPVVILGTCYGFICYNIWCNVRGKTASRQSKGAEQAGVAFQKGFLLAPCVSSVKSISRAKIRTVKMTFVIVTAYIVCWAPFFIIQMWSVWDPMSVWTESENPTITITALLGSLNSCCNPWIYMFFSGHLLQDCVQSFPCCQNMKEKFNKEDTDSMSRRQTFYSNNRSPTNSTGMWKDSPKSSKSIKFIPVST
The target of assay [8] is Voltage-dependent L-type calcium channel subunit alpha-1C (Rattus norvegicus, UniProt P22002). In kind it is functional.
Chain of Voltage-dependent L-type calcium channel subunit alpha-1C (P22002 whole entry): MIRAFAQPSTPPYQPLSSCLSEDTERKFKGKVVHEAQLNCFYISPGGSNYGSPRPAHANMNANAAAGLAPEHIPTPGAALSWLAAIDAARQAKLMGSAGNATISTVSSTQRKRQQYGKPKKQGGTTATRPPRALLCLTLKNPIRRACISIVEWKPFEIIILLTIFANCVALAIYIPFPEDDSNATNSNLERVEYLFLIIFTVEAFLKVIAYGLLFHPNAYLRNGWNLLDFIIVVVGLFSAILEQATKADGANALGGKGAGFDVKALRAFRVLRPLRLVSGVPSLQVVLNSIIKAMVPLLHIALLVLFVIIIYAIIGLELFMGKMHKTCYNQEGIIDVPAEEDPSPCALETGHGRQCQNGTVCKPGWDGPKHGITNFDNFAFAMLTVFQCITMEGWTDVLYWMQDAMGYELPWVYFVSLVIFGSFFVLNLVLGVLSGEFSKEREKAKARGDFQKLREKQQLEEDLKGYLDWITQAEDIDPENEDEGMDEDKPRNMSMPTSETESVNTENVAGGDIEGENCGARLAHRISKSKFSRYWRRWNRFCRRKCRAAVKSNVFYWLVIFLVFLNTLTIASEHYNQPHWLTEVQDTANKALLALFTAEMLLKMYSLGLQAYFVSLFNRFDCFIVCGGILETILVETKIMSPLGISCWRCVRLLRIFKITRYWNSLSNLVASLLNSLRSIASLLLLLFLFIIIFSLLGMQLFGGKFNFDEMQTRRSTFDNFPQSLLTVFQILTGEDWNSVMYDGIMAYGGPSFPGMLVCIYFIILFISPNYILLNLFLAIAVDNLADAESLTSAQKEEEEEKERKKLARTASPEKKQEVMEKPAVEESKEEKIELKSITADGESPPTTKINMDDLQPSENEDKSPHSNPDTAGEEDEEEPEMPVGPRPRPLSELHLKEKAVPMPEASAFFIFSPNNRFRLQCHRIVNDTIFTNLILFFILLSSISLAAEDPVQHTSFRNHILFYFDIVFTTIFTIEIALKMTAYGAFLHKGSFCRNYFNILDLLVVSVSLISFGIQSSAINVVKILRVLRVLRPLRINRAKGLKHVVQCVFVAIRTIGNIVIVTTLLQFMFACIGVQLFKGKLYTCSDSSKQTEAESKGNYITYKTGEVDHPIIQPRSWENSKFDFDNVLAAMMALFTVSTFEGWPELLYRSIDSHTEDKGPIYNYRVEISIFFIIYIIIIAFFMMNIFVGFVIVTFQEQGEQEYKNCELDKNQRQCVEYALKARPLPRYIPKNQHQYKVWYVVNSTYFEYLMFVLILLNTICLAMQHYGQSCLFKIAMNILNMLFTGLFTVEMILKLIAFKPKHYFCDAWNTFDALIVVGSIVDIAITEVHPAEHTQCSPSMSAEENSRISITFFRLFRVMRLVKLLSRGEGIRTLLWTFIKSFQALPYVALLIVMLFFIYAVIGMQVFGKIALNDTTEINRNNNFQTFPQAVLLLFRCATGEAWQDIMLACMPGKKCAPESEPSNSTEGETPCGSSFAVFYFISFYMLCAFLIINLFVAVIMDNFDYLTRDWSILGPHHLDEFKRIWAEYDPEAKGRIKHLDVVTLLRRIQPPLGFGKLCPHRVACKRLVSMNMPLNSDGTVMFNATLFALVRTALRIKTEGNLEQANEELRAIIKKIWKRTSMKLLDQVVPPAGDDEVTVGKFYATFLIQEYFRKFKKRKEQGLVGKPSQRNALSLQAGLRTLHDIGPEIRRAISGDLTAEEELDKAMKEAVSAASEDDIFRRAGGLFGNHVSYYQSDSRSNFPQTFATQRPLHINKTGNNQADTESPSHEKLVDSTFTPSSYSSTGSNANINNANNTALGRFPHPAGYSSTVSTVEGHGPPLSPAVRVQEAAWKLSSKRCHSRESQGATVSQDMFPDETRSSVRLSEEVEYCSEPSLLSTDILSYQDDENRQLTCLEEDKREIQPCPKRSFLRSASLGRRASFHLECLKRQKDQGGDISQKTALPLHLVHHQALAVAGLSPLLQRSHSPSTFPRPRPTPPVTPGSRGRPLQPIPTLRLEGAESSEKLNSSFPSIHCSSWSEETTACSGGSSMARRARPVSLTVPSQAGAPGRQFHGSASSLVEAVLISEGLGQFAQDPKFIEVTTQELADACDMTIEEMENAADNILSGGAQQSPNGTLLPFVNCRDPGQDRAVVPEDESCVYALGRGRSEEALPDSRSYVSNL
For the next assay, the target named is T5, Estrogen receptor (Homo sapiens, UniProt P03372).
T5 sequence (P03372 whole entry): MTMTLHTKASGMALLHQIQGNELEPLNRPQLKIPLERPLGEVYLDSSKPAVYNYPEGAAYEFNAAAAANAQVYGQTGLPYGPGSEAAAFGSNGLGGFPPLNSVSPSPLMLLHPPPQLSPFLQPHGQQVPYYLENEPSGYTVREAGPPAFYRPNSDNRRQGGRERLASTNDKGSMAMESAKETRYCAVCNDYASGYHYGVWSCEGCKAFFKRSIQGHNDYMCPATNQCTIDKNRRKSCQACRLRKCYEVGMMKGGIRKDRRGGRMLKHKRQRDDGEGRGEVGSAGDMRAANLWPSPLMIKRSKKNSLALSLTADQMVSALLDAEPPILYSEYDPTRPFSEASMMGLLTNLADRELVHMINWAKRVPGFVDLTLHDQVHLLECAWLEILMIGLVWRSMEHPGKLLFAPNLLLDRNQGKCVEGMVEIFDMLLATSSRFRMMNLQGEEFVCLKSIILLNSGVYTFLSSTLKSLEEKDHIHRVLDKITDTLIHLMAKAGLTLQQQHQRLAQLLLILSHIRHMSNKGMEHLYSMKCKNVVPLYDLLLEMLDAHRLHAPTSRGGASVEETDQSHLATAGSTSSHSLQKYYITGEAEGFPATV

Assay [9] concerns the target T2, Muscarinic acetylcholine receptor M2. In kind it is functional, cell-based. This is another data set of the same source.

What is called AC50 is the concentration giving half of the maximal activity seen.
Further: assay procedure not described here.

Chain of Sodium-dependent noradrenaline transporter (P23975 whole entry): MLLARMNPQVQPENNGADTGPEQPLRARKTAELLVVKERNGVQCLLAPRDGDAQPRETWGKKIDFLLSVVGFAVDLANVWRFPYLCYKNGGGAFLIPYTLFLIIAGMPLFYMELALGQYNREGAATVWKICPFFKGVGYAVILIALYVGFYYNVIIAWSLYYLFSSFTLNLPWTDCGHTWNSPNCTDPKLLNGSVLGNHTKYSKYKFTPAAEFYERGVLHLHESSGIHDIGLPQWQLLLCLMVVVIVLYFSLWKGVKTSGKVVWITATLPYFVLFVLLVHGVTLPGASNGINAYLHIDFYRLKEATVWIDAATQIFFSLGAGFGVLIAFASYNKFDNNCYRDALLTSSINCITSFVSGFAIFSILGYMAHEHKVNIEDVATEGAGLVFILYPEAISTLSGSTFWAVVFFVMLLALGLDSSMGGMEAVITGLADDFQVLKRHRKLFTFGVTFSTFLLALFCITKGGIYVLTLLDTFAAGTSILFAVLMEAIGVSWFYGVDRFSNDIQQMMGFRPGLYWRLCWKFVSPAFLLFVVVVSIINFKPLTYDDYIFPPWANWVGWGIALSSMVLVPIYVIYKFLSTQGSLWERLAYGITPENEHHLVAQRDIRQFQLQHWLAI
Chain of Melanocortin receptor 3 (P41968 whole entry): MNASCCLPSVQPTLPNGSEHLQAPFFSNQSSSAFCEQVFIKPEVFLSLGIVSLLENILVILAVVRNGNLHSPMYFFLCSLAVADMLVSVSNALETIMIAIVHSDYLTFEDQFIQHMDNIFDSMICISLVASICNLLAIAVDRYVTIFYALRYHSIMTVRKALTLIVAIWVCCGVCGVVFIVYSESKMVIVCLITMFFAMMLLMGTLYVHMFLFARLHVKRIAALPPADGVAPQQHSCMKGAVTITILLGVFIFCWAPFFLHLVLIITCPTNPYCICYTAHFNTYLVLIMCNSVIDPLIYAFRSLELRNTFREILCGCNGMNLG
Chain of Delta-type opioid receptor (P41143 whole entry): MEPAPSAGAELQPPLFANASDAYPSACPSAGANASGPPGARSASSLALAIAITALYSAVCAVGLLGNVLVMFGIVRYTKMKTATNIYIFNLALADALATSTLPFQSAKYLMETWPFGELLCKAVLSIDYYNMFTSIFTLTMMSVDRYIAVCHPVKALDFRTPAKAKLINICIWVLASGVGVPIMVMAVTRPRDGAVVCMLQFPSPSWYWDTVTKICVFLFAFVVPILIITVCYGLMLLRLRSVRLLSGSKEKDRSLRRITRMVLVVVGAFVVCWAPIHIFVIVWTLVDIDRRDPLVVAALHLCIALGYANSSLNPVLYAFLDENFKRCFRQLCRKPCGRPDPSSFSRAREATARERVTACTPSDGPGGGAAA

As for `COc1cc2c(cc1OC)C(CCc1ccc(Cl)cc1)N(C)CC2` (stereo not given) [METHOPHOLINE], the AC50 was over 30 µM in assay [1]; over 30 µM in assay [2]; over 10 µM in assay [3]; 11 µM in [4]; over 30 µM in assay [5]; over 30 µM in assay [6]. Moreover, the AC50 is over 30 µM at Melanocortin receptor 3; over 30 µM in [7]; over 30 µM at Vasopressin V1a receptor; over 10 µM in assay [8]; over 30 µM on Estrogen receptor; over 10 µM in assay [9].

Regarding `C[N@+]1(CCF)[C@@H]2CC[C@H]1C[C@@H](OC(=O)C(O)(c1ccccc1)c1ccccc1)C2`, the AC50 in [1], in [2], in assay [3], in assay [4], in assay [5] and in [6] was over 30 µM throughout. Further, the AC50 is over 30 µM on Melanocortin receptor 3; over 30 µM in assay [7]; over 30 µM on Vasopressin V1a receptor; over 30 µM in assay [8]; over 30 µM at Estrogen receptor; 0.0145 µM in assay [9].

With `C=C[C@@]1(C)CC(=O)[C@]2(O)[C@@]3(C)[C@@H](O)CCC(C)(C)[C@@H]3[C@H](O)[C@H](OC(C)=O)[C@@]2(C)O1` [COLFORSIN], the concentration at half-maximal activity (AC50) in assay [1] is over 30 µM; in [2] it was over 30 µM; in [3], 1.9 µM; in assay [4], over 30 µM; in [5] it was over 30 µM; in assay [6] it was over 30 µM. Besides, the half-maximal activity concentration (AC50) at Melanocortin receptor 3 was over 30 µM; in [7], over 30 µM; on Vasopressin V1a receptor it was over 30 µM; in assay [8], over 30 µM; at Estrogen receptor, over 30 µM; in assay [9], 11 µM.

As for `CC(=O)SC[C@@H](C)C(=O)N1CCC[C@H]1C(=O)N[C@@H](Cc1ccccc1)C(=O)O`, the AC50 in assay [1], in [2], in assay [3], in assay [4], in assay [5] and in assay [6] was over 30 µM in each case. Besides, the concentration at half-maximal activity (AC50) (at Melanocortin receptor 3; in [7]; on Vasopressin V1a receptor; in [8]; at Estrogen receptor; in assay [9]) was over 30 µM throughout.

Turning to `CCN(CC)CCNC(=O)c1cc(S(C)(=O)=O)ccc1OC` [TIAPRIDE], the AC50 in assay [1], in assay [2], in assay [3], in [4], in [5] and in assay [6] was over 30 µM each time. Also, the AC50 (at Melanocortin receptor 3; in assay [7]; on Vasopressin V1a receptor; in assay [8]; at Estrogen receptor; in assay [9]) was over 30 µM in each case.

For `COc1ccc2nc3cc(Cl)ccc3c(Nc3cc(CN4CCCC4)c(O)c(CN4CCCC4)c3)c2n1` [PYRONARIDINE], the concentration at half-maximal activity (AC50) in assay [1] is over 30 µM; in assay [2], 8.1 µM; in assay [3], over 30 µM; in assay [4], over 30 µM; in assay [5], 21 µM; in [6], over 30 µM. Besides, the AC50 on Melanocortin receptor 3 was over 30 µM; in assay [7], over 30 µM; at Vasopressin V1a receptor, over 30 µM; in [8], over 30 µM; on Estrogen receptor, over 30 µM; in assay [9], 15 µM.

As to `CCCCCC(=O)O[C@]1(C(C)=O)CC[C@H]2[C@@H]3CCC4=CC(=O)CC[C@]4(C)[C@H]3CC[C@@]21C` [HYDROXYPROGESTERONE CAPROATE], the half-maximal activity concentration (AC50) in assay [1], in assay [2], in assay [3], in assay [4], in assay [5] and in [6] was over 30 µM each time. Also, the concentration at half-maximal activity (AC50) (on Melanocortin receptor 3; in assay [7]; at Vasopressin V1a receptor; in assay [8]; at Estrogen receptor; in [9]) was over 30 µM throughout.

For the compound `CC(=O)[C@@]1(O)CC[C@H]2[C@@H]3C=C(Cl)C4=CC(=O)[C@@H]5C[C@@H]5[C@]4(C)[C@H]3CC[C@@]21C` [CYPROTERONE], the half-maximal activity concentration (AC50) is over 10 µM in [1]; over 10 µM in assay [2]; over 10 µM in assay [3]; over 10 µM in assay [4]; over 10 µM in assay [5]; over 30 µM in assay [6]. For the same compound, the AC50 on Melanocortin receptor 3 is over 10 µM; in assay [7], over 10 µM; on Vasopressin V1a receptor, over 10 µM; in assay [8], over 10 µM; on Estrogen receptor, over 30 µM; in assay [9] it was over 10 µM.

Take `CCN(CC)C(=O)Nc1ccc(OCC(O)CNC(C)(C)C)c(C(C)=O)c1` (stereo not given) [CELIPROLOL]: the AC50 in assay [1], in [2], in [3], in [4], in assay [5] and in assay [6] was over 30 µM throughout. The AC50 was over 30 µM at Melanocortin receptor 3; 0.076 µM in [7]; over 30 µM at Vasopressin V1a receptor; over 30 µM in assay [8]; over 30 µM at Estrogen receptor; over 30 µM in [9].

In the case of `O=C1CN=C(c2ccccn2)c2cc(Br)ccc2N1` [BROMAZEPAM], the concentration at half-maximal activity (AC50) in assay [1] is over 10 µM; in assay [2], over 10 µM; in assay [3] it was over 10 µM; in assay [4] it was over 10 µM; in [5] it was over 10 µM; in assay [6], over 30 µM. For the same compound, the concentration at half-maximal activity (AC50) (at Melanocortin receptor 3; in assay [7]; at Vasopressin V1a receptor; in assay [8]; on Estrogen receptor; in assay [9]) was over 10 µM throughout.
